Assay results: ChEMBL document CHEMBL1201862, “PubChem BioAssay data set” (2004)
Activity calls are given as the source filed them.

Tests used:
[1] = biological target: T1, Kappa-type opioid receptor (Homo sapiens, UniProt P41145); assay: kappa opioid receptor activation potency – imaging, image-based, SAR follow-up (AID 2359); type: functional
[2] = biological target: T1, Kappa-type opioid receptor; assay: kappa opioid receptor blockers, image-based, SAR follow-up (AID 2348); type: functional
[3] = biological target: T2, Mu-type opioid receptor (Homo sapiens, UniProt P35372); assay: mu opioid receptor blockers – image-based, SAR follow-up (AID 2420); type: functional;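 also: compounds added before stimulation of receptor with agonist DAMGO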
T2 sequence (P35372 whole entry): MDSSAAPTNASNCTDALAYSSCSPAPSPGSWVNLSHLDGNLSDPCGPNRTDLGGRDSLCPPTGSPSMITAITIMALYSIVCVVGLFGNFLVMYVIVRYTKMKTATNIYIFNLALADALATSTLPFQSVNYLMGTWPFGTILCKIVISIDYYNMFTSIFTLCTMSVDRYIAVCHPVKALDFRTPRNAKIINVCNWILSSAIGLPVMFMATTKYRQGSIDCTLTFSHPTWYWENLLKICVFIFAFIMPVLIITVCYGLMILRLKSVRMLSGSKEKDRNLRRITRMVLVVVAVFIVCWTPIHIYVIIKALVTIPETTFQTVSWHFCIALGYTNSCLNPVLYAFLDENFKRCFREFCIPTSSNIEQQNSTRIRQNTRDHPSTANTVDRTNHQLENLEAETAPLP

[4] = biological target: T3, Delta-type opioid receptor (Homo sapiens, UniProt P41143); assay: DOR agonists, SAR follow-up, image-based (AID 2370); type: functional
T3 sequence (P41143 whole entry): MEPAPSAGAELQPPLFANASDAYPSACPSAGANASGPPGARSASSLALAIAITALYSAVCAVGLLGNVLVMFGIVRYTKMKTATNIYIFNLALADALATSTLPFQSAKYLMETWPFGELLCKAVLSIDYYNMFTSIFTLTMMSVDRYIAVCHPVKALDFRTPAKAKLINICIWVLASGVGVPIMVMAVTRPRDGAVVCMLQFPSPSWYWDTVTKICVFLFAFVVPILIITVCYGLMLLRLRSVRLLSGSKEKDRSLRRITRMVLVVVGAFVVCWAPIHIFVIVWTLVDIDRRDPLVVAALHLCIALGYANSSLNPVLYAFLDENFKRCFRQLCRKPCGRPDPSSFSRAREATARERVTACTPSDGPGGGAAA

[5] = biological target: T2, Mu-type opioid receptor; assay: mu opioid receptor activators, image-based, SAR follow-up (AID 2352); type: functional
[6] = biological target: T1, Kappa-type opioid receptor; assay: kappa opioid receptor blockers, cell-based, luminescence, beta-arrestin, SAR follow-up (AID 2285); type: functional
[7] = biological target: T3, Delta-type opioid receptor; assay: delta opioid receptor blockers – image-based, SAR follow-up (AID 2357); type: functional
[8] = biological target: T4, Tyrosine-protein phosphatase non-receptor type 7 (Homo sapiens, UniProt P35236); type: functional
T4 sequence (P35236 whole entry): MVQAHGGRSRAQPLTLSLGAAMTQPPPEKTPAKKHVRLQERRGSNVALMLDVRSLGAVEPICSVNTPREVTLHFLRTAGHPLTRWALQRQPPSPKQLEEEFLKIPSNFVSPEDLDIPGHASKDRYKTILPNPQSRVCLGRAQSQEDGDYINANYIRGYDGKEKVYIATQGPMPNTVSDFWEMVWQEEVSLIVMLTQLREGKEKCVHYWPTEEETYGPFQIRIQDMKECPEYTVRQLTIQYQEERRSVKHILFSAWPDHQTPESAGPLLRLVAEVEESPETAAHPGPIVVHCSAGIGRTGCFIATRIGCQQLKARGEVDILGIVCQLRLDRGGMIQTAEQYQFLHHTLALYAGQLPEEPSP

[9] = biological target: T5, Tyrosine-protein phosphatase non-receptor type 22 (Homo sapiens, UniProt Q9Y2R2); type: functional
T5 sequence (Q9Y2R2 whole entry): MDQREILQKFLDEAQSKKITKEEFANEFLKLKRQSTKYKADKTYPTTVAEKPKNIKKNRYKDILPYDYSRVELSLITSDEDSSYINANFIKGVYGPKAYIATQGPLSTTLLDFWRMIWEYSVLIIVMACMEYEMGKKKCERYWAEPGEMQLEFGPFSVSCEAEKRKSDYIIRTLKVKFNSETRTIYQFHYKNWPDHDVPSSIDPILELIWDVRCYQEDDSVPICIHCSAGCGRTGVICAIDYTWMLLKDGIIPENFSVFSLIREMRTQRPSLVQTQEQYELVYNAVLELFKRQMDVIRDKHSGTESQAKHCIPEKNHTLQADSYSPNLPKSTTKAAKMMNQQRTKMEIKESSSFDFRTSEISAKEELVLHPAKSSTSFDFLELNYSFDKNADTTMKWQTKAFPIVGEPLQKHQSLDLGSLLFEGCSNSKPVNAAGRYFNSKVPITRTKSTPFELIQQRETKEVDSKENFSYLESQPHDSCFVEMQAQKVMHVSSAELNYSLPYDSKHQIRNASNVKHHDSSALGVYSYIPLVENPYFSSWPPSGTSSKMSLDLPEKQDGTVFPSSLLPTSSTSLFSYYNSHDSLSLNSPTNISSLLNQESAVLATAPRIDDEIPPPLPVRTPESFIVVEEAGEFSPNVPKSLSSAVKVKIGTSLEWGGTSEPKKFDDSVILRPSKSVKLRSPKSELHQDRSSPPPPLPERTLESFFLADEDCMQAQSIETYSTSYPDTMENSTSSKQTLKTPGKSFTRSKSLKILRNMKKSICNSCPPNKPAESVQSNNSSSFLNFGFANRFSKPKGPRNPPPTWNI

[10] = biological target: T5, Tyrosine-protein phosphatase non-receptor type 22; type: functional; remark: listed apart in the source
[11] = biological target: Lysine-specific demethylase 4C (Homo sapiens, UniProt Q9H3R0); assay: inhibition of JMJD2C H3K9me3 demethylation – biochemical, DELFIA europium, cherry-picked samples, dose response (AID 488835); type: functional
Chain of Lysine-specific demethylase 4C (Q9H3R0 whole entry): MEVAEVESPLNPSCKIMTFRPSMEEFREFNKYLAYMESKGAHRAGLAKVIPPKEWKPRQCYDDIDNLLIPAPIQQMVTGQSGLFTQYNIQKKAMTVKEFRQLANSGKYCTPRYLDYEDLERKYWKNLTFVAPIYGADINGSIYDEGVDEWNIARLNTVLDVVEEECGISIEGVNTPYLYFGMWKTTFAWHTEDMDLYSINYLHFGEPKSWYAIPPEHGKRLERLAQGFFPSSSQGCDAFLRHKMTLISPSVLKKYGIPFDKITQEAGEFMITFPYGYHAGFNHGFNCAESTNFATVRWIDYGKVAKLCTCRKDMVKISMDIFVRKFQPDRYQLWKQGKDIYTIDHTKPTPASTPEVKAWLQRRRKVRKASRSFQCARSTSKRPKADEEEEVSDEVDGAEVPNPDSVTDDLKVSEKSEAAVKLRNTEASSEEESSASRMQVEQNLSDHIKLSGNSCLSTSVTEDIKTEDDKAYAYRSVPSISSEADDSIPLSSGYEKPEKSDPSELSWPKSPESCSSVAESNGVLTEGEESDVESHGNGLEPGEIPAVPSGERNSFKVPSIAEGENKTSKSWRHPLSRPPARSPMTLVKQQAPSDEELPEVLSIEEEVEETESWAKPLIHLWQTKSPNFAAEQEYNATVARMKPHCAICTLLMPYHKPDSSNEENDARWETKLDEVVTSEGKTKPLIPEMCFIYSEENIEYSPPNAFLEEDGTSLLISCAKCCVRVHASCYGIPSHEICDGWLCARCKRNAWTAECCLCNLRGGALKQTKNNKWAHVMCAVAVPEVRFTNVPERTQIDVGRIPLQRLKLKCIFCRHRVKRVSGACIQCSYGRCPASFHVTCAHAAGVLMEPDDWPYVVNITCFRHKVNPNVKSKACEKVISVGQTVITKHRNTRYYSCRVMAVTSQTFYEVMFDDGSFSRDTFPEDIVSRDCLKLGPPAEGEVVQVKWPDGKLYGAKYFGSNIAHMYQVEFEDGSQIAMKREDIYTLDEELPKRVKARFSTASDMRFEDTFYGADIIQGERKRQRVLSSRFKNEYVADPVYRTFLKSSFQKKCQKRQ

[12] = biological target: Intestinal-type alkaline phosphatase (Homo sapiens, UniProt P09923); assay: inhibition of human intestinal alkaline phosphatase – biochemical, dose response (AID 488876); type: functional
Chain of Intestinal-type alkaline phosphatase (Homo sapiens, UniProt P09923) (P09923 whole entry): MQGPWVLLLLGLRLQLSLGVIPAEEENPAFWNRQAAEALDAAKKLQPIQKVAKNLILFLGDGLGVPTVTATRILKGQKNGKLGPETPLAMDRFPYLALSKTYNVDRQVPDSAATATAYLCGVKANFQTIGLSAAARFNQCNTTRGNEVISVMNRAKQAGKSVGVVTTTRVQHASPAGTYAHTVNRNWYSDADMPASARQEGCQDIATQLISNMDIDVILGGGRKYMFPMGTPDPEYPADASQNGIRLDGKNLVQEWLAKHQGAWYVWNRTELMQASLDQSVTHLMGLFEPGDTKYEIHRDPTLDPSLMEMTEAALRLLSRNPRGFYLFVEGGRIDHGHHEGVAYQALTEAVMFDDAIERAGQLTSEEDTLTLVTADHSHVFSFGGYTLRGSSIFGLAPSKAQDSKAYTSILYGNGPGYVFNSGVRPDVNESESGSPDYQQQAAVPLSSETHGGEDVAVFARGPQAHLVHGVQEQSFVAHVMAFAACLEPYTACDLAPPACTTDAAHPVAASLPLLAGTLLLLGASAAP

[13] = biological target: Intestinal-type alkaline phosphatase (Mus musculus, UniProt P24822); assay: PubChem AID 488785; type: functional
Chain of Intestinal-type alkaline phosphatase (Mus musculus, UniProt P24822) (P24822 whole entry): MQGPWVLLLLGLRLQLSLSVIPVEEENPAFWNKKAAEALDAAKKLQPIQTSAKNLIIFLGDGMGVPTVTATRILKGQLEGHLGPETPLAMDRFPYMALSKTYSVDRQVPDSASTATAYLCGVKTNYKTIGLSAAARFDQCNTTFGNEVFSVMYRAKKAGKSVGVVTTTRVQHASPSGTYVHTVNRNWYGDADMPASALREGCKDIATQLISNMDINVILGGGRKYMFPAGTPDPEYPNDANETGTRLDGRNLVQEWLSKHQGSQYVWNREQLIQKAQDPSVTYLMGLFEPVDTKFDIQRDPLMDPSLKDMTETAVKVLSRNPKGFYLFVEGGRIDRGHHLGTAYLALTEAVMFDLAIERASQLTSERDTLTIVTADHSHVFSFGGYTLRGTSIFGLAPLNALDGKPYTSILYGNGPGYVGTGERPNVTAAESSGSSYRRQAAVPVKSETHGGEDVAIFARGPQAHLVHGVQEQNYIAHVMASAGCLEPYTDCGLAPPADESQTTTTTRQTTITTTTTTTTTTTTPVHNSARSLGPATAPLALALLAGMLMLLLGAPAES

[14] = biological target: T6, Alkaline phosphatase, tissue-nonspecific isozyme (Homo sapiens, UniProt P05186); assay: TNAP enzyme inhibition by screening hits, dose response, selectivity assay for mouse IAP inhibitor project, biochemical, human TNAP, uHTS hits (AID 488906); type: functional
T6 sequence (P05186 whole entry): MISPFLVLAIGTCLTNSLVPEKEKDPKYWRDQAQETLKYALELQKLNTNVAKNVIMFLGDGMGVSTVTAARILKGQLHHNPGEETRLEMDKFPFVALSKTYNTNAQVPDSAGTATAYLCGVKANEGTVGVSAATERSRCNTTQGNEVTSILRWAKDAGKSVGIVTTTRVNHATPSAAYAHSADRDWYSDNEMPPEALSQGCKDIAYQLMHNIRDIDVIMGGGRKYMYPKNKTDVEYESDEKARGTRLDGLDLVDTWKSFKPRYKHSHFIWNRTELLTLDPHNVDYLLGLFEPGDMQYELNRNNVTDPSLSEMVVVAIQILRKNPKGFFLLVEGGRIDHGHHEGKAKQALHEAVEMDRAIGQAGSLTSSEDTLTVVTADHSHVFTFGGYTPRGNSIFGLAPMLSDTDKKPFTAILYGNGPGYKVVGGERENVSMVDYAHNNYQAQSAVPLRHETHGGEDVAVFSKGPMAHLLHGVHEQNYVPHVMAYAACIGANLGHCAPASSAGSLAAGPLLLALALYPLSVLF

[15] = system: HEK293; assay: cells; details: Homo sapiens
[16] = system: HEK293; assay: cells; type: functional, cell-based; details: Homo sapiens
[17] = system: HEK293; assay: NOD2 signaling inhibitors in MDP-stimulated cells, cell-based, uHTS, luminescence (AID 2001); type: functional; details: Homo sapiens
[18] = biological target: Tumor necrosis factor (Homo sapiens, UniProt P01375); assay: analog potency on TNFa NF-kB signaling – cell-based, revised, SAR follow-up (AID 2337); type: functional
Chain of Tumor necrosis factor (P01375 whole entry, the tested form may be a part): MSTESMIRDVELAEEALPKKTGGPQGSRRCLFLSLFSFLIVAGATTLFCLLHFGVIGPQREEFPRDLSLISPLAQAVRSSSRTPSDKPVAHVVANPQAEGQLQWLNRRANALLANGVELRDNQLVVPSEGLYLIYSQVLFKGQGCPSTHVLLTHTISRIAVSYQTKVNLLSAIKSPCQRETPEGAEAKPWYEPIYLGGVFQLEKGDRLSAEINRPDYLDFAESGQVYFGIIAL

[19] = biological target: Nucleotide-binding oligomerization domain-containing protein 1 (Homo sapiens, UniProt Q9Y239); assay: blockers of NOD1 pathway activity – revised, SAR follow-up (AID 2333); type: functional
[20] = viability of HCT116 lacking mutant beta-catenin – cell-based, human colon tumor, dose response (AID 1045); type: functional;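 also: HCT116 colon tumor cells with beta catenin knocked out; cells exposed to compound for 60 hours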
[21] = viability of PTEN-deleted HCT116 cells – cell-based, HCT116 PTEN knockout, dose response (AID 1047); type: functional;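 also: HCT116 colon tumor cells with PTEN knocked out; cells exposed to compound for 60 hours before readout; potency for loss of cell viability measured by luminescence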
[22] = biological target: Nucleotide-binding oligomerization domain-containing protein 2 (Homo sapiens, UniProt Q9HC29); assay: PubChem AID 2334; type: functional
Chain of Nucleotide-binding oligomerization domain-containing protein 2 (Q9HC29 whole entry, the tested form may be a part): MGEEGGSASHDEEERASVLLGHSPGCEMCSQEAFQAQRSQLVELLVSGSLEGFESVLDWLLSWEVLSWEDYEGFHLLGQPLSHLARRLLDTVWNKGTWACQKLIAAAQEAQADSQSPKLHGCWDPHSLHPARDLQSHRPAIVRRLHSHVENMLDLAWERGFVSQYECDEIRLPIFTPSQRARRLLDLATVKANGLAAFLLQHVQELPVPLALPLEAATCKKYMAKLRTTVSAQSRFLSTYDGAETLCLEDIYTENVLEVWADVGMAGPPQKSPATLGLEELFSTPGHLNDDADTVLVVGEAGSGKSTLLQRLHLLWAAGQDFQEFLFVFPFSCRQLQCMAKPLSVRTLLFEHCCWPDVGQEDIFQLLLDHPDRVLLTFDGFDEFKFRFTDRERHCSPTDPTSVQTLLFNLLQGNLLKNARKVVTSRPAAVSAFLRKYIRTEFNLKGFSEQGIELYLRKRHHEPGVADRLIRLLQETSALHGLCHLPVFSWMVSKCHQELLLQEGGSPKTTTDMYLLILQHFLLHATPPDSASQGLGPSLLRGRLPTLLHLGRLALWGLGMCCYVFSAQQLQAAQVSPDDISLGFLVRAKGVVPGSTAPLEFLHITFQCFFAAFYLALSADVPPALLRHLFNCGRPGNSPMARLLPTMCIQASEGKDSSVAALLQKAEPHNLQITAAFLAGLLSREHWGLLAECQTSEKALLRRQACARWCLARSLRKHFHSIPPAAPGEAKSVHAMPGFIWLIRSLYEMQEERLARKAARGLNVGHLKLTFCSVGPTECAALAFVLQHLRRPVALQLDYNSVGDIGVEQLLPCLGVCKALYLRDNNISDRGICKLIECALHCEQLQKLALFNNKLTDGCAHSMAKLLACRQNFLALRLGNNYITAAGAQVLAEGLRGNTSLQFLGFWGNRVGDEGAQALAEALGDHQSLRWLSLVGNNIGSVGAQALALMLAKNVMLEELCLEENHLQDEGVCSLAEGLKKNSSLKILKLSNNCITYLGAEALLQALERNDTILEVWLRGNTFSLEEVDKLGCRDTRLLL

[23] = system: HEK293; assay: cells; type: functional, cell-based; details: Homo sapiens; remark: listed apart in the source
[24] = system: HEK293; assay: inhibition of NOD1-driven NF-kB reporter – cell-based, luminescence, uHTS, primary screen (AID 1578); type: functional; details: Homo sapiens
[25] = biological target: G-protein coupled receptor 55 (Homo sapiens, UniProt Q9Y2T6); assay: blockers of GPR55 signalling, imaged – imaging, image-based, counter-screen for GPR35 antagonist project, SAR follow-up (AID 2397); type: functional
Chain of G-protein coupled receptor 55 (Q9Y2T6 whole entry): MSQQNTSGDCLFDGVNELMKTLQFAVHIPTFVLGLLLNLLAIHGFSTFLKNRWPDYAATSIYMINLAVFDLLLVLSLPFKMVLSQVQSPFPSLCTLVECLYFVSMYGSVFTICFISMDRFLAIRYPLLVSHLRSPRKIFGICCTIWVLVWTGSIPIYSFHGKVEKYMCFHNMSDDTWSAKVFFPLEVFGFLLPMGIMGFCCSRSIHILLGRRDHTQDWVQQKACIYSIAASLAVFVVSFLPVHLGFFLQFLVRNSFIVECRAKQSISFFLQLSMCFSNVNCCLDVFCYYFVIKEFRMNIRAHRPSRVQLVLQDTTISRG

T1 sequence (P41145 whole entry): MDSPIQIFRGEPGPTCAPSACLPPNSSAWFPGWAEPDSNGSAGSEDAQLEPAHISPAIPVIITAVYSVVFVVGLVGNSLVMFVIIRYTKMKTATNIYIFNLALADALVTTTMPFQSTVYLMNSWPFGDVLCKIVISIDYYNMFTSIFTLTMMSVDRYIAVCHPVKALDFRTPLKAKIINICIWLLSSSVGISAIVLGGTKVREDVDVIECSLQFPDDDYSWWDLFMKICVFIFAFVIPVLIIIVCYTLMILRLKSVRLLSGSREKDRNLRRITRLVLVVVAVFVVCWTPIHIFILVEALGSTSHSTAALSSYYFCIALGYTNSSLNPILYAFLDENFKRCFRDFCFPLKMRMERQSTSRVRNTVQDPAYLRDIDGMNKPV

In the case of `COc1ccc(S(=O)(=O)NCc2ccc(C(=O)NCCN(C)Cc3ccccc3)cc2)cc1`, the EC50 [1] was > 32 µM (inactive), the IC50 [2] was 24 µM (inactive) and the IC50 [3] was > 32 µM (inactive). For the same molecule, the EC50 [4] was > 32 µM (inactive), the EC50 [5] was > 32 µM (inactive) and the IC50 [6] was > 10 µM (inactive). For the same molecule, the IC50 [7] was > 32 µM (inactive).

With `Cc1ccccc1Cn1cc(NC(=O)c2nn(C)cc2Cl)cn1` the IC50 [8] was > 79.4 µM (inactive), the IC50 [9] was > 79.4 µM (inactive) and the IC50 [10] was > 79.4 µM (inactive).

For `CC(C)CCN(C(=O)C1=COCCO1)c1c(N)n(Cc2ccccc2)c(=O)[nH]c1=O`, the AC50 [11] was 20.6 µM (active).

For `CC(C)(C)c1ccc(O)c(/N=C/c2cc3c(cc2[N+](=O)[O-])OCO3)c1`, the IC50 [12] was > 100 µM (inactive), the IC50 [13] was 6.39 µM (active) and the IC50 [14] was > 100 µM (inactive).

With `Cc1cccc(-n2nc3c4c(ccc3c2O)C(=O)c2ccccc2C4=O)c1` the IC50 [15] was > 20 µM (inactive), the IC50 [16] was > 20 µM (inactive) and the IC50 [17] was > 20 µM (inactive). The IC50 [18] was 16.3 µM (active), the IC50 [19] was 17.1 µM (active) and the EC50 [20] was 30 µM (active). For the same molecule, the EC50 [21] was 114 µM (active), the IC50 [22] was 17.8 µM (active) and the IC50 [23] was > 20 µM (inactive). For the same molecule, the EC50 [24] was 8.5 µM (active).

In the case of `Cc1ccccc1OCCC(=O)NCCc1ccc(S(N)(=O)=O)cc1`, the IC50 [25] was > 32 µM (inactive).
